“And” between values parts separate entries of the source, which are not always exact repeats. Equal values may be shown once. Read-outs that look alike come from different tables or passages of the source.
Assays:
[1] = Hepatic impairment study: safety and tolerability; type: in vivo, human; details: single 60 mg dose, all hepatic function groups
Procedure: A multicenter, non-randomized, open-label, parallel-group, single-dose study was carried out to evaluate the PK, safety, and tolerability profiles of atogepant in participants with impaired hepatic function and matched healthy participants with normal hepatic function after a single 60-mg oral dose of atogepant. The primary outcome measures were PK parameters of atogepant derived from plasma concentrations. Safety measures were AEs, clinical laboratory determinations, vital sign parameters, electrocardiographic results, and physical examination findings.

[2] = Excretion after single oral dose of 14C-atogepant; type: in vivo, human; details: single oral dose of 50 mg 14C-atogepant, healthy male subjects
Procedure: The parent compound (atogepant) and a glucuronide conjugate metabolite (M23) were the most prevalent circulating components in human plasma. […] Following a single oral dose of 50 mg ^14C-atogepant to healthy male subjects, 42% and 5% of the dose was recovered as unchanged atogepant in feces and urine, respectively.

CYP1A2 = assay: CYP induction; type: in vitro ADME; details: clinically relevant concentrations
CYP2D6 = CYP2D6 (Homo sapiens, UniProt P10635); assay: In vitro CYP inhibition; type: in vitro ADME; details: clinically relevant concentrations
Chain of CYP2D6 (P10635 whole entry): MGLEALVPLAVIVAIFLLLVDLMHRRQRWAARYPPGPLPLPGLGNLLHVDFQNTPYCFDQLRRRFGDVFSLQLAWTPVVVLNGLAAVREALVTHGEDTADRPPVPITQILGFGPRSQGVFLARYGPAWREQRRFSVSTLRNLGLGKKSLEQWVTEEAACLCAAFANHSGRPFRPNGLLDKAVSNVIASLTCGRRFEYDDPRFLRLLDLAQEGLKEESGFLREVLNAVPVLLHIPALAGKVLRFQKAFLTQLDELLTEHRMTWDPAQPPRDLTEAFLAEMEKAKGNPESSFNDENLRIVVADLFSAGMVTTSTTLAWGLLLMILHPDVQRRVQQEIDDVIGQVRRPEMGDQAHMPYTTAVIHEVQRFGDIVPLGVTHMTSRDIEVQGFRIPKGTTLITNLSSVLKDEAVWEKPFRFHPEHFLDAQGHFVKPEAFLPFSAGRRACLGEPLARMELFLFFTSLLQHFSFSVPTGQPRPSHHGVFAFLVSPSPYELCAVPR

P-gp = P-gp (Homo sapiens, UniProt P08183); assay: Transporter inhibition; type: in vitro ADME; details: clinically relevant concentrations
Chain of P-gp (P08183 whole entry): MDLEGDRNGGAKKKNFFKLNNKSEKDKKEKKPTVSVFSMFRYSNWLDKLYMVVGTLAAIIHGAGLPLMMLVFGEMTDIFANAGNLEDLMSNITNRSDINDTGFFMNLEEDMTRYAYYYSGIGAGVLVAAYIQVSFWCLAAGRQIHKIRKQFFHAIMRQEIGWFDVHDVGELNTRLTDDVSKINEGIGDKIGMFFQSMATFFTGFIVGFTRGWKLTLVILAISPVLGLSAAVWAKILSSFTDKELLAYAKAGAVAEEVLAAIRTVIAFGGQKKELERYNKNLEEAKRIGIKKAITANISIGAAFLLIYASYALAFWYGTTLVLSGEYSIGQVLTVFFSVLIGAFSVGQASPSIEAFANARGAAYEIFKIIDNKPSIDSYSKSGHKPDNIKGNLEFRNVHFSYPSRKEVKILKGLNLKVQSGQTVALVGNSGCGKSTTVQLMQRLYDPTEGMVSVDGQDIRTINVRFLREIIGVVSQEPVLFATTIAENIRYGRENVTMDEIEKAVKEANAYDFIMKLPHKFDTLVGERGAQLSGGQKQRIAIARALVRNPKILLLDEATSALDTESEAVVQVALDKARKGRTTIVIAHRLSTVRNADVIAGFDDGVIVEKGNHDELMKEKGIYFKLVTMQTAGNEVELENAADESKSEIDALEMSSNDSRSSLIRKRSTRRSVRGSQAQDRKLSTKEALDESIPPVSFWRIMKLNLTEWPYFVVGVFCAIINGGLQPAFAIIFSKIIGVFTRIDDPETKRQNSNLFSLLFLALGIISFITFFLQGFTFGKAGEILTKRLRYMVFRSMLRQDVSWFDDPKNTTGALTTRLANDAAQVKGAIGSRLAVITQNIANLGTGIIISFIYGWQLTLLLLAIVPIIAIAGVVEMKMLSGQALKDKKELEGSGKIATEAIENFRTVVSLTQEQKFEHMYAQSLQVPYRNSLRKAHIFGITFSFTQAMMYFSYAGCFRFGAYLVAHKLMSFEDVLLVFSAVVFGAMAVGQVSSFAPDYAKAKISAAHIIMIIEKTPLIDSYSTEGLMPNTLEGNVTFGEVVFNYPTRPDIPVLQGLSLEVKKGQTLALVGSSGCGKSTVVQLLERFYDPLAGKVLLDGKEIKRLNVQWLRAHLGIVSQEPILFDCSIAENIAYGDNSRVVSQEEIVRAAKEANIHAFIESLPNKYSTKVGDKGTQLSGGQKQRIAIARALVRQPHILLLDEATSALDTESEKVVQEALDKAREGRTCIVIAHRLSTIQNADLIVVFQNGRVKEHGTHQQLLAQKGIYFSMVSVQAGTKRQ

NTCP = NTCP (Homo sapiens, UniProt Q14973); assay: Transporter inhibition; type: in vitro ADME; details: clinically relevant concentrations
Chain of NTCP (Q14973 whole entry): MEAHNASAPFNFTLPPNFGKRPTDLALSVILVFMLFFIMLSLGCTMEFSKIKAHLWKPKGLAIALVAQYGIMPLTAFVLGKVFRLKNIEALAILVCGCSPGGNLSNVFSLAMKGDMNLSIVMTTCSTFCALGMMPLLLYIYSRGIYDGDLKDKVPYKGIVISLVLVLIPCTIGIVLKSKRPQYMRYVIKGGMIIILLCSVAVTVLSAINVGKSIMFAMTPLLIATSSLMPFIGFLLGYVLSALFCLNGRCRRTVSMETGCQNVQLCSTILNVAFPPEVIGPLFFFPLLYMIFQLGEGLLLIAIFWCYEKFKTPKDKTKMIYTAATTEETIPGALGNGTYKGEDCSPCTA

[3] = Atogepant-itraconazole interaction study: safety and tolerability; type: in vivo, human
Text: The primary objective of this study was to assess the effects of multiple dose itraconazole on the pharmacokinetics of a single dose of atogepant. The primary endpoints were PK parameters of atogepant derived from plasma concentrations. The secondary objectives of the study were to assess the safety and tolerability of atogepant and itraconazole given alone and in combination, and to establish the correlation between concentrations of atogepant in dried blood sample (DBS) (obtained via finger stick) and plasma. The secondary endpoints included AEs, clinical laboratory parameters, vital signs, ECG, and physical examination, and correlation of concentrations of atogepant in DBS and plasma. Subjects who satisfied the inclusion and exclusion criteria were assigned to a single fixed-treatment sequence in which they received Treatment A followed by Treatment B; there was a 7-day washout period between treatments. • Treatment A: Single oral 60 mg dose of atogepant (tablet) under fasted conditions on Day 1 • Treatment B • Days 8-14: Itraconazole 200 mg (tablet) orally once daily under fed conditions. • Day 15: Itraconazole 200 mg coadministered with atogepant 60 mg (tablet) under fasted conditions. • Days 16 to 17: Itraconazole 200 mg (tablet) once daily under fed conditions.

[4] = Atogepant-rifampin drug interaction study: atogepant plasma PK; type: in vivo, human; details: for Tmax: read-out: Tmax (median); for Vd/F: read-out: Vz/F
Procedure: The study consisted of a Screening Visit, two study periods, an end-of-treatment (EOT) visit, and a follow-up visit. […] [table] […] Relative to the time that atogepant was administered, blood samples for atogepant plasma PK were to be collected at the following times: • Days 1 and 12: 0 hour (predose) and at 0.5, 1, 1.5, 2, 3, 4, 6, 8, 12, 16, 24, 36, and 48 hours post dose. • Day 7: 0 hour (predose) and at 0.5, 1, 1.5, 2, 3, 4, 6, 8, 12, 16, and 24 hours postdose

CYP3A4 = CYP3A4 (Homo sapiens, UniProt P08684); assay: Elimination by metabolism; type: in vitro ADME
Chain of CYP3A4 (P08684 whole entry): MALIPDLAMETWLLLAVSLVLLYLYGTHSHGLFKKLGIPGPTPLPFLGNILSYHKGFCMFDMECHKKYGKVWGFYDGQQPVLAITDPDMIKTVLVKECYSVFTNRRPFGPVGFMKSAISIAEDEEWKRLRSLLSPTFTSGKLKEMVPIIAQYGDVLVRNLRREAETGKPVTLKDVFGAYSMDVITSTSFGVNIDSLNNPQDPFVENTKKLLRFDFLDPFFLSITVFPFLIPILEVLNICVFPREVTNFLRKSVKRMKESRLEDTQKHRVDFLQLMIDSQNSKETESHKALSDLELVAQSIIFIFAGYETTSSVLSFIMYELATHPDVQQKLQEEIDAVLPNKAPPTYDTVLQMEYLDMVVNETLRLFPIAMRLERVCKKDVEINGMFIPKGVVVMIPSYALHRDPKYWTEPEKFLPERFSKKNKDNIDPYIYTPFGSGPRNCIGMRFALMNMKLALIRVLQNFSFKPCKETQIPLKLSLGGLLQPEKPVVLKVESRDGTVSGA

CYP2C9 = CYP2C9 (Homo sapiens, UniProt P11712); assay: In vitro CYP inhibition; type: in vitro ADME; details: clinically relevant concentrations
Chain of CYP2C9 (P11712 whole entry): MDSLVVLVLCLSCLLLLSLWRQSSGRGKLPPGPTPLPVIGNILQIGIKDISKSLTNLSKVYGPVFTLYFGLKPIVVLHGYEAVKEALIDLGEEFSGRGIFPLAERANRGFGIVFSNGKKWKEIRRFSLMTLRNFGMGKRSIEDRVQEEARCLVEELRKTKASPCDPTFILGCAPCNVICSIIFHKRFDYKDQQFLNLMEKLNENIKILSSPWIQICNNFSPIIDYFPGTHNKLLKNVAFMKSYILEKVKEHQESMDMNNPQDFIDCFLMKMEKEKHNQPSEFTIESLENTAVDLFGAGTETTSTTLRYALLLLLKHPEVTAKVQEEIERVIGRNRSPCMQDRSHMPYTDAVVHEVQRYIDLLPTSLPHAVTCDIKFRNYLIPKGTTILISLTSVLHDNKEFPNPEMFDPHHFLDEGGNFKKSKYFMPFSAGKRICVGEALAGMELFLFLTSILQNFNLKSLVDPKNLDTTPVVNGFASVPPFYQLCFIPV

CYP2C8 = CYP2C8 (Homo sapiens, UniProt P10632); assay: In vitro CYP inhibition; type: in vitro ADME; details: clinically relevant concentrations
Chain of CYP2C8 (P10632 whole entry): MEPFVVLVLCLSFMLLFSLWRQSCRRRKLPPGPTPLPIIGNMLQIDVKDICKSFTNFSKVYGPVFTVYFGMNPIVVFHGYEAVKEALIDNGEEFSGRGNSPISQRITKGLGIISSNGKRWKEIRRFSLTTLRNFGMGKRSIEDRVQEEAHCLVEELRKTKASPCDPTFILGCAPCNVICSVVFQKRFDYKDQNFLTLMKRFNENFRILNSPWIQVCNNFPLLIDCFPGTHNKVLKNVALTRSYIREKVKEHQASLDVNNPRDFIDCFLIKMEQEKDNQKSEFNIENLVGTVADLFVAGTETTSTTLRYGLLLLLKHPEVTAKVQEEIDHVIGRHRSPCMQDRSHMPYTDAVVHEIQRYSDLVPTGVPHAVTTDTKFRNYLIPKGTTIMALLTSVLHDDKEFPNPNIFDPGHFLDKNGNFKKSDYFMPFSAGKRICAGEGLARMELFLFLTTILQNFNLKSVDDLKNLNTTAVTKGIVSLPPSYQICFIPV

[5] = Treatment A: atogepant 60 mg alone
[6] = Treatment B1 (single-dose rifampin) / Treatment A
[7] = Treatment B2 (multi-dose rifampin) / Treatment A
[8] = Treatment B2: atogepant 60 mg + multiple-dose rifampin 600 mg
[9] = atogepant 60 mg + multiple-dose rifampin 600 mg (strong CYP3A4 inducer) vs atogepant alone
[10] = atogepant 60 mg + single-dose rifampin 600 mg (OATP inhibitor) vs atogepant alone
[11] = both sexes, human, plasma, oral, 60 mg, Treatment A: atogepant 60 mg alone
[12] = both sexes, human, plasma, oral, Treatment B2: atogepant 60 mg + multiple-dose rifampin 600 mg

SMILES: C[C@@H]1[C@H](c2c(F)ccc(F)c2F)C[C@H](NC(=O)c2cnc3c(c2)C[C@@]2(C3)C(=O)Nc3ncccc32)C(=O)N1CC(F)(F)F [atogepant, (3′S)-N-[(3S,5S,6R)-6-methyl-2-oxo-1-(2,2,2-trifluoroethyl)-5-(2,3,6-trifluorophenyl)piperidin-3-yl]-2′-oxo-1′,2′,5,7-tetrahydrospiro[cyclopenta[b]pyridine-6,3′-pyrrolo[2,3-b]pyridine]-3-carboxamide]
- tolerability [1]: well tolerated
- dose recovered as unchanged atogepant in feces [2]: 42%
- dose recovered as unchanged atogepant in urine [2]: 5%
- induction of CYP1A2 (CYP1A2): not an inducer
- inhibition of CYP2D6 (CYP2D6): not an inhibitor
- inhibition of P-gp (P-gp): not an inhibitor
- inhibition of NTCP (NTCP): not an inhibitor
- subjects experiencing dizziness (TEAE) ([3]; atogepant alone): 2 subjects
- tolerability ([3]; each treatment (atogepant alone, itraconazole, combination)): well-tolerated
- CL/F [4, 5]: 22.8 L/h
- λz [4, 5]: 0.0778 h⁻¹
- AUC0-24 Ratio of Geometric Means Test/Ref [4, 6]: 284.84%
- Cmax Ratio of Geometric Means Test/Ref [4, 6]: 222.65%
- AUC0-t Ratio of Geometric Means Test/Ref [4, 7]: 40.46%
- AUC0-∞ Ratio of Geometric Means Test/Ref [4, 7]: 38.85%
- Cmax Ratio of Geometric Means Test/Ref [4, 7]: 70.06%
- CL/F [4, 8]: 58.3 L/h and 58.3^b L/h
- λz [4, 8]: 0.325^b 1/h
- reduction of atogepant AUC0-t (AUC) [4, 9]: 60%
- reduction of atogepant Cmax [4, 9]: 30%
- reduction of atogepant AUC0-∞ ([4]; atogepant 60 mg + multiple-dose rifampin 600 mg vs atogepant alone): 61%
- increase in atogepant AUC0-24 [4, 10]: 2.85 fold
- increase in atogepant Cmax [4, 10]: 2.23 fold
- half-life [4, 11]: 11.4 h
- AUC(0-t) ([4]; both sexes, human, plasma, oral, 60 mg, Treatment A: atogepant 60 mg alone, read-out: AUC0-24): 2870 ng·h/mL
- AUC(0-t) ([4]; both sexes, human, plasma, oral, 60 mg, Treatment A: atogepant 60 mg alone, read-out: AUC0-24 Geometric LSM, Reference): 2680 ng·h/mL
- AUC(0-t) ([4]; both sexes, human, plasma, oral, 60 mg, Treatment A: atogepant 60 mg alone, read-out: AUC0-t): 2960 ng·h/mL
- AUC(0-t) ([4]; both sexes, human, plasma, oral, 60 mg, Treatment A: atogepant 60 mg alone, read-out: AUC0-t Geometric LSM, Reference): 2770 ng·h/mL
- AUC(0-inf) ([4]; both sexes, human, plasma, oral, 60 mg, Treatment A: atogepant 60 mg alone, read-out: AUC0-∞): 3000 ng·h/mL
- AUC(0-inf) ([4]; both sexes, human, plasma, oral, 60 mg, Treatment A: atogepant 60 mg alone, read-out: AUC0-∞ Geometric LSM, Reference): 2810 ng·h/mL
- Cmax ([4]; both sexes, human, plasma, oral, 60 mg, Treatment A: atogepant 60 mg alone, read-out: Cmax): 711 ng/mL
- Cmax ([4]; both sexes, human, plasma, oral, 60 mg, Treatment A: atogepant 60 mg alone, read-out: Cmax Geometric LSM, Reference): 649 ng/mL
- Tmax [4, 11]: 1.5 h
- AUC(0-t) ([4]; both sexes, human, plasma, oral, Treatment B1: atogepant 60 mg + single-dose rifampin 600 mg, read-out: AUC0-24): 8130 ng·h/mL
- AUC(0-t) ([4]; both sexes, human, plasma, oral, Treatment B1: atogepant 60 mg + single-dose rifampin 600 mg, read-out: AUC0-24 Geometric LSM, Test): 7630 ng·h/mL
- Cmax ([4]; both sexes, human, plasma, oral, Treatment B1: atogepant 60 mg + single-dose rifampin 600 mg, read-out: Cmax): 1550 ng/mL
- Cmax ([4]; both sexes, human, plasma, oral, Treatment B1: atogepant 60 mg + single-dose rifampin 600 mg, read-out: Cmax Geometric LSM, Test): 1440 ng/mL
- Tmax ([4]; both sexes, human, plasma, oral, Treatment B1: atogepant 60 mg + single-dose rifampin 600 mg): 2 h
- half-life [4, 12]: 2.39 h
- AUC(0-t) ([4]; both sexes, human, plasma, oral, Treatment B2: atogepant 60 mg + multiple-dose rifampin 600 mg, read-out: AUC0-t): 1180 ng·h/mL
- AUC(0-t) ([4]; both sexes, human, plasma, oral, Treatment B2: atogepant 60 mg + multiple-dose rifampin 600 mg, read-out: AUC0-t Geometric LSM, Test): 1120 ng·h/mL
- AUC(0-inf) ([4]; both sexes, human, plasma, oral, Treatment B2: atogepant 60 mg + multiple-dose rifampin 600 mg, read-out: AUC0-∞): 1130 ng·h/mL
- AUC(0-inf) ([4]; both sexes, human, plasma, oral, Treatment B2: atogepant 60 mg + multiple-dose rifampin 600 mg, read-out: AUC0-∞ Geometric LSM, Test): 1090 ng·h/mL
- Cmax ([4]; both sexes, human, plasma, oral, Treatment B2: atogepant 60 mg + multiple-dose rifampin 600 mg, read-out: Cmax): 487 ng/mL
- Cmax ([4]; both sexes, human, plasma, oral, Treatment B2: atogepant 60 mg + multiple-dose rifampin 600 mg, read-out: Cmax Geometric LSM, Test): 454 ng/mL
- Tmax [4, 12]: 1.5 h
- Vd/F [4, 12]: 197 L
- reduction in mean apparent half-life ([4]; both sexes, human, plasma, oral, atogepant + multiple dose rifampin vs atogepant alone, read-out: reduction of mean apparent T1/2 (converted)): ~9 h
- Vd/F ([4]; both sexes, human, plasma, oral, Treatment A: atogepant 60 mg alone): 390 L
- route of elimination (metabolism) (CYP3A4): primarily by CYP3A4
- inhibition of CYP2C9 (CYP2C9): not an inhibitor
- inhibition of CYP2C8 (CYP2C8): not an inhibitor

— patent US12350259B2, “Methods of treating migraine” (Allergan Pharmaceuticals International Limited, priority 2021, dated 2025)
